According to patent US20060069123A1, “Substituted dipiperidine CCR2 antagonists” (priority 2004, published 2006):
Like-named read-outs stand apart in the source and are kept apart here.

How the values were obtained:
[1] = tested on: BALB/c female mice; experiment: Mouse Model of Allergic Asthma; type: in vivo; details: 100 mg/kg ip
From the text: Mouse Model of Allergic Asthma: An allergic asthma model in mice was used to test compounds of the invention for therapeutic effect on asthmatic response as a function of airway inflammation and hyperresponsiveness ([…], et al., J. Phar. Exp. Ther., 2000, 295: 912-926). Airway hyperresponsiveness in asthmatic patients is a cardinal feature of allergic asthma and is maintained as a result of persistent airway inflammation. Eosinophils are the prominent cells involved in airway inflammation and are found in large numbers in sputum and bronchoalveolar lavage fluids. Airway responsiveness was measured in unrestrained mice by noninvasive whole body plethysmography using a BioSystem plethysmography instrument (BUXCO, Troy, N.Y.). Each animal was individually placed in the plethysmography instrument chamber and chamber pressure was used as a measure of the difference between thoracic volume expansion or contraction and air volume removed or added to the chamber during breathing. The differential of this function with respect to time produced a pseudo flow value that was proportionate to the difference between the rate of the thoracic volume expansion and nasal air flow (Hamelmann, et al., J. Respir. Crit. Care Med., 1997, 156: 766-775). Three treatment groups of BALB/c female mice (6-8 weeks old) were tested in the 32 day study: • Group 1: vehicle control phosphate buffered saline (PBS)-sensitized and PBS-challenged mice; • Group 2: positive control ovalbumin (OVA)-sensitized and OVA-challenged mice; and, • Group 3: OVA-sensitized and OVA-challenged mice treated with Compound 13. […] • Group 1 mice were sensitized by injection (ip) with PBS; and, • Group 2 mice were OVA sensitized by injection (ip) with OVA (20 μg) dissolved in PBS adsorbed on 2.25 mg alum. […] Day 32: The three treatment groups were challenged via airway by means of methacholine inhalation and asthmatic response was measured as a function of airway hyper-responsiveness. A baseline reading over a 5 min period for each of the mice in the three treatment groups was taken in the plethysmography instrument, then the baseline readings were averaged. • Group 1 mice were nebulized with saline at increasing doses (1-30 mg/ml) over a 2 min period. • Group 2 (first subset) and Group 3 mice were nebulized with methacholine at increasing doses (1-30 mg/ml) over a 2 min period. Post-Challenge Phase A 5 min post-challenge reading for each of the mice was taken and the readings were averaged. Reduction in airway hyperresponsiveness was calculated according to the following formula: [formula] Airway inflammation was measured by eosinophil cell count in bronchoalveolar saline lavage samples (1 mL) of the mice from the three groups. […] The number of eosinophils was counted and the cell concentration adjusted to 0.1×10^6/mL.

[2] = tested on: Lewis rats; experiment: Adjuvant-Induced Arthritis Model (Therapeutic Dosing from Day 12-16); type: in vivo; details: ip, bid, 100 mg/kg, days 12-16
From the text: Adjuvant-Induced Arthritis Model (Therapeutic Dosing from Day 12-16)

[3] = tested on: Lewis rats; details: ip, bid, 100 mg/kg, days 0-14
[4] = tested on: DBA1 mice; details: 100 mg/kg ip, bid, day 20 to day 35, in either vehicle
Procedure: Collagen-Induced Arthritis Model
In a collagen-induced arthritis model in mice, DBA1 mice were immunized with bovine type II collagen on day 0, injected (sc) with lipopolysaccharide (LPS) on day 21, and dosed (ip, bid) with a test compound at either 25, 50 or 100 mg/kg from day 20 to day 35. Body weight was monitored, and clinical disease score recorded every 2-3 days starting on day 20.
Test compound was dosed in one of two vehicles:
• 1) 10% Pharmasolve:20% PEG-400:70% of a 1% solution of Tween-80 in water; or, • 2) 30% PEG400:20% Solutol:50% of a 0.1 N solution of NaHCO3.

[5] = tested on: THP-1 cells; details: Homo sapiens, THP-1, read-out: Inhibition of MCP-1 Induced Calcium Ion Influx IC50
[6] = tested on: THP-1 cells; experiment: MCP-1 Induced Chemotaxis in THP-1 Cells; type: cell-based; details: Homo sapiens, THP-1, 3 h, read-out: Inhibition of MCP-1 Induced Chemotaxis IC50
[7] = OVA-sensitized and OVA-challenged mice

| Compound | Airway Hyperresponsiveness (whole body plethysmography reading) ([1]; Group 3: OVA-sensitized and OVA-challenged mice, methacholine challenge day 32, n=4) | Eosinophil Infiltration (eosinophil cell count in bronchoalveolar lavage) ([1]; Group 3: OVA-sensitized and OVA-challenged mice, n=3) | reduction in airway hyperresponsiveness compared to the non-treated mice [1, 7] [%] | reduction in airway inflammation compared to the non-treated mice [1, 7] [%] | decreased swelling in the injected paw [2] [%] | inhibited contralateral paw swelling [2] [%] | decrease in swelling in the injected paws [3] [%] | swelling of the contralateral paws [3] | inhibited the development of arthritis (clinical disease score on day 35) [4] | IC50 [5] [nM] | IC50 [6] [nM] |
| --- | --- | --- | --- | --- | --- | --- | --- | --- | --- | --- | --- |
| O=C(O)[C@H](C1CCN(C(=O)/C=C/c2cc(F)c(F)c(F)c2)CC1)N1CCC(c2c[nH]c3ccccc23)CC1 [Cpd 13, (S)-{[4-(1H-indol-3-yl)-piperidin-1-yl]}-{1-[(2E)-3-(3,4,5-trifluoro-phenyl)-acryloyl]-piperidin-4-yl}-acetic acid] | 1147±49 | 0.2±0.1 ×10^5/ml | ~36 | 75 | – | – | – | – | – | – | – |
| O=C(O)C(C1CCN(C(=O)/C=C/c2cc(F)c(F)c(F)c2)CC1)N1CCC(c2c[nH]c3ccccc23)CC1 (centres unmarked) [Cpd 6, [4-(1H-indol-3-yl)-piperidin-1-yl]-{1-[(2E)-3-(3,4,5-trifluoro-phenyl)-acryloyl]-piperidin-4-yl}-acetic acid] | – | – | – | – | 40 | 51 | 40 | insignificant swelling | greater than 90% | 5 | 8 |
